Assay results from patent publication US11987586B1 (TAKEDA PHARMACEUTICAL COMPANY LIMITED, priority 2022, dated 2024).

What follows are compounds tested against T1, human OX2 receptor (Homo sapiens, UniProt O43614) (assay: Measurement of orexin type 2 receptor agonist activity (calcium fluorescence, Fluo-4, FDSS)). Settings: 3 uM test compound; CHO cells expressing human OX2 receptor; DMSO = 0%, 10 nM orexin A (human) = 100%.
T1 construct: expressed in transfected cells
T1 sequence (O43614 1-444): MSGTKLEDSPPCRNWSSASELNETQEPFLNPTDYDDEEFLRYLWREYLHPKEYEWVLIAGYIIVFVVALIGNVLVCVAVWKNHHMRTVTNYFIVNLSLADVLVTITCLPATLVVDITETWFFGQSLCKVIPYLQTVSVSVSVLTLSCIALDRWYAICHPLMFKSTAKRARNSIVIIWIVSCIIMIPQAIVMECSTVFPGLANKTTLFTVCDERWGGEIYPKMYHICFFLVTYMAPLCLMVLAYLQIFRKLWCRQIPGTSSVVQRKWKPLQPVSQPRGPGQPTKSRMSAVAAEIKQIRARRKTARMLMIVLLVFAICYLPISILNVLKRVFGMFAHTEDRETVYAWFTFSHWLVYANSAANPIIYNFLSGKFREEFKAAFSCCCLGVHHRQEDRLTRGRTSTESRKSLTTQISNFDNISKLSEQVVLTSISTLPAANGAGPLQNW
Format: cell-based
Procedure, shortened: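 Agonist activity (%) was normalised to the response to 10 nM final human orexin A (100%) and to the DMSO vehicle (0%). The response was measured as the Fluo-4 calcium signal, read kinetically over 1 min 40 s after compound addition to Fluo-4/probenecid-loaded stable CHO-K1 clones expressing human OX2 (aa 1-444).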
With `CCS(=O)(=O)N[C@@H]1CN2C(=O)N(c3noc4cc(OC(F)F)cc(-c5c(F)cc(F)cc5F)c34)CC[C@@H]2C1(F)F` [Example 303, N-{(4aR,6R)-2-[6-(difluoromethoxy)-4-(2,4,6-trifluorophenyl)-1,2-benzoxazol-3-yl]-5,5-difluoro-1-oxooctahydropyrrolo[1,2-c]pyrimidin-6-yl}ethanesulfonamide] the “OX2R agonist activity (3 uM, %)” value was 103%.
In the case of `CCS(=O)(=O)N[C@@H]1CN2C(=O)N(c3noc4cc(F)c(F)c(-c5c(F)cc(F)cc5F)c34)CC[C@@H]2C1(F)F` [Example 304, N-{(4aR,6R)-2-[5,6-difluoro-4-(2,4,6-trifluorophenyl)-1,2-benzoxazol-3-yl]-5,5-difluoro-1-oxooctahydropyrrolo[1,2-c]pyrimidin-6-yl}ethanesulfonamide], the “OX2R agonist activity (3 uM, %)” value is reported as 117%.
For `O=C1N(c2noc3cc(F)c(F)c(-c4c(F)cc(F)cc4F)c23)CC[C@H]2N1C[C@@H](NS(=O)(=O)C1CC1)C2(F)F` [Example 305, N-{(4aR,6R)-2-[5,6-difluoro-4-(2,4,6-trifluorophenyl)-1,2-benzoxazol-3-yl]-5,5-difluoro-1-oxooctahydropyrrolo[1,2-c]pyrimidin-6-yl}cyclopropanesulfonamide], the “OX2R agonist activity (3 uM, %)” value was 113%.
With `O=c1n(-c2noc3cc(C(F)F)cc(-c4c(F)cccc4F)c23)cc2n1C[C@@H](NS(=O)(=O)CF)C2(F)F` [Example 306, N-{(6R)-2-[6-(difluoromethyl)-4-(2,6-difluorophenyl)-1,2-benzoxazol-3-yl]-7,7-difluoro-3-oxo-2,5,6,7-tetrahydro-3H-pyrrolo[1,2-c]imidazol-6-yl}-1-fluoromethanesulfonamide] the “OX2R agonist activity (3 uM, %)” value was 101%.
With `CCOc1cc(-c2c(F)cc(F)cc2F)c2c(N3CC[C@H]4N(C[C@@H](NS(=O)(=O)CC)C4(F)F)C3=O)noc2c1` [Example 307, N-{(4aR,6R)-2-[6-ethoxy-4-(2,4,6-trifluorophenyl)-1,2-benzoxazol-3-yl]-5,5-difluoro-1-oxooctahydropyrrolo[1,2-c]pyrimidin-6-yl}ethanesulfonamide] the “OX2R agonist activity (3 uM, %)” value was 101%.
In the case of `COc1cc(-c2c(F)cc(F)cc2F)c2c(N3CC[C@H]4N(C[C@@H](NS(=O)(=O)C5CC5)C4(F)F)C3=O)noc2n1` [Example 308, N-{(4aR,6R)-5,5-difluoro-2-[6-methoxy-4-(2,4,6-trifluorophenyl)[1,2]oxazolo[5,4-b]pyridin-3-yl]-1-oxooctahydropyrrolo[1,2-c]pyrimidin-6-yl}cyclopropanesulfonamide], the “OX2R agonist activity (3 uM, %)” value is reported as 100%.
With `CCS(=O)(=O)N[C@@H]1Cn2c(cn(-c3noc4nc(OC)cc(-c5c(F)cc(F)cc5F)c34)c2=O)C1(F)F` [Example 309, N-{(6R)-7,7-difluoro-2-[6-methoxy-4-(2,4,6-trifluorophenyl)[1,2]oxazolo[5,4-b]pyridin-3-yl]-3-oxo-2,5,6,7-tetrahydro-3H-pyrrolo[1,2-c]imidazol-6-yl}ethanesulfonamide] the “OX2R agonist activity (3 uM, %)” value was 107%.
With `CNS(=O)(=O)N[C@@H]1CN2C(=O)N(c3noc4cc(F)cc(-c5c(F)cccc5F)c34)C[C@@H]2C1(F)F` [Example 310, N-{(6R,7aR)-2-[4-(2,6-difluorophenyl)-6-fluoro-1,2-benzoxazol-3-yl]-7,7-difluoro-3-oxohexahydro-1H-pyrrolo[1,2-c]imidazol-6-yl}-N′-methylsulfuric diamide] the “OX2R agonist activity (3 uM, %)” value was 100%.
`CCS(=O)(=O)N[C@@H]1CN2C(=O)N(c3noc4cc(F)c(F)c(-c5c(F)cccc5F)c34)CC[C@@H]2C1(F)F` [Example 311, N-{(4aR,6R)-2-[4-(2,6-difluorophenyl)-5,6-difluoro-1,2-benzoxazol-3-yl]-5,5-difluoro-1-oxooctahydropyrrolo[1,2-c]pyrimidin-6-yl}ethanesulfonamide] was tested, and the “OX2R agonist activity (3 uM, %)” value was 99%.
With `O=C1N(c2noc3cc(F)c(F)c(-c4c(F)cccc4F)c23)CC[C@H]2N1C[C@@H](NS(=O)(=O)C1CC1)C2(F)F` [Example 312, N-{(4aR,6R)-2-[4-(2,6-difluorophenyl)-5,6-difluoro-1,2-benzoxazol-3-yl]-5,5-difluoro-1-oxooctahydropyrrolo[1,2-c]pyrimidin-6-yl}cyclopropanesulfonamide] the “OX2R agonist activity (3 uM, %)” value was 100%.
With `O=C1N(c2noc3cc(F)c(F)c(-c4c(F)cccc4F)c23)CC[C@H]2N1C[C@@H](NS(=O)(=O)CF)C2(F)F` [Example 313, N-{(4aR,6R)-2-[4-(2,6-difluorophenyl)-5,6-difluoro-1,2-benzoxazol-3-yl]-5,5-difluoro-1-oxooctahydropyrrolo[1,2-c]pyrimidin-6-yl}-1-fluoromethanesulfonamide] the “OX2R agonist activity (3 uM, %)” value was 99%.
For `CS(=O)(=O)N[C@@H]1CN2C(=O)N(c3noc4cc(F)cc(-c5c(F)cccc5F)c34)CC[C@@H]2C1(F)F` [Example 314, N-{(4aR,6R)-2-[4-(2,6-difluorophenyl)-6-fluoro-1,2-benzoxazol-3-yl]-5,5-difluoro-1-oxooctahydropyrrolo[1,2-c]pyrimidin-6-yl}methanesulfonamide], the “OX2R agonist activity (3 uM, %)” value was 113%.
In the case of `CCS(=O)(=O)N[C@@H]1CN2C(=O)N(c3noc4nc(OC)cc(-c5c(F)cc(F)cc5F)c34)CC[C@@H]2C1(F)F` [Example 315, N-{(4aR,6R)-5,5-difluoro-2-[6-methoxy-4-(2,4,6-trifluorophenyl)[1,2]oxazolo[5,4-b]pyridin-3-yl]-1-oxooctahydropyrrolo[1,2-c]pyrimidin-6-yl}ethanesulfonamide], the “OX2R agonist activity (3 uM, %)” value is reported as 105%.
In the case of `O=C1N(c2noc3cc(OC(F)F)cc(-c4c(F)cc(F)cc4F)c23)CC[C@H]2N1C[C@@H](NS(=O)(=O)C1CC1)C2(F)F` [Example 316, N-{(4aR,6R)-2-[6-(difluoromethoxy)-4-(2,4,6-trifluorophenyl)-1,2-benzoxazol-3-yl]-5,5-difluoro-1-oxooctahydropyrrolo[1,2-c]pyrimidin-6-yl}cyclopropanesulfonamide], the “OX2R agonist activity (3 uM, %)” value is reported as 105%.
In the case of `CS(=O)(=O)N[C@H]1C[C@H]2CCN(c3noc4cccc(-c5c(F)cccc5F)c34)C(=O)N2C1` [Example 317, N-{(4aR,6S)-2-[4-(2,6-difluorophenyl)-1,2-benzoxazol-3-yl]-1-oxooctahydropyrrolo[1,2-c]pyrimidin-6-yl}methanesulfonamide], the “OX2R agonist activity (3 uM, %)” value is reported as 110%.
For `O=C1N(c2noc3cc(F)cc(-c4ncc(F)cc4F)c23)CC[C@H]2N1C[C@@H](NS(=O)(=O)C1CC1)C2(F)F` [Example 318, N-{(4aR,6R)-2-[4-(3,5-difluoropyridin-2-yl)-6-fluoro-1,2-benzoxazol-3-yl]-5,5-difluoro-1-oxooctahydropyrrolo[1,2-c]pyrimidin-6-yl}cyclopropanesulfonamide], the “OX2R agonist activity (3 uM, %)” value was 105%.
For `O=C1N(c2noc3cccc(-c4ncc(F)cc4F)c23)CC[C@H]2N1C[C@@H](NS(=O)(=O)C1CC1)C2(F)F` [Example 319, N-{(4aR,6R)-2-[4-(3,5-difluoropyridin-2-yl)-1,2-benzoxazol-3-yl]-5,5-difluoro-1-oxooctahydropyrrolo[1,2-c]pyrimidin-6-yl}cyclopropanesulfonamide], the “OX2R agonist activity (3 uM, %)” value was 107%.
`CS(=O)(=O)N[C@@H]1CN2C(=O)N(c3noc4cccc(-c5ncc(F)cc5F)c34)CC[C@@H]2C1(F)F` [Example 320, N-{(4aR,6R)-2-[4-(3,5-difluoropyridin-2-yl)-1,2-benzoxazol-3-yl]-5,5-difluoro-1-oxooctahydropyrrolo[1,2-c]pyrimidin-6-yl}methanesulfonamide] was tested, and the “OX2R agonist activity (3 uM, %)” value was 104%.
With `CCS(=O)(=O)N[C@@H]1CN2C(=O)N(c3noc4cccc(-c5ncc(F)cc5F)c34)CC[C@@H]2C1(F)F` [Example 321, N-{(4aR,6R)-2-[4-(3,5-difluoropyridin-2-yl)-1,2-benzoxazol-3-yl]-5,5-difluoro-1-oxooctahydropyrrolo[1,2-c]pyrimidin-6-yl}ethanesulfonamide] the “OX2R agonist activity (3 uM, %)” value was 108%.
For `CCS(=O)(=O)N[C@@H]1CN2C(=O)N(c3noc4cccc(-c5ccccc5OC)c34)CC[C@@H]2C1(F)F` [Example 322, N-{(4aR,6R)-5,5-difluoro-2-[4-(2-methoxyphenyl)-1,2-benzoxazol-3-yl]-1-oxooctahydropyrrolo[1,2-c]pyrimidin-6-yl}ethanesulfonamide], the “OX2R agonist activity (3 uM, %)” value was 99%.
In the case of `CCS(=O)(=O)N[C@@H]1CN2C(=O)N(c3noc4cccc(-c5ccc(F)cc5C)c34)CC[C@@H]2C1(F)F` [Example 323, N-{(4aR,6R)-5,5-difluoro-2-[4-(4-fluoro-2-methylphenyl)-1,2-benzoxazol-3-yl]-1-oxooctahydropyrrolo[1,2-c]pyrimidin-6-yl}ethanesulfonamide], the “OX2R agonist activity (3 uM, %)” value is reported as 97%.
In the case of `CCS(=O)(=O)N[C@@H]1CN2C(=O)N(c3noc4cccc(-c5ccco5)c34)CC[C@@H]2C1(F)F` [Example 324, N-{(4aR,6R)-5,5-difluoro-2-[4-(furan-2-yl)-1,2-benzoxazol-3-yl]-1-oxooctahydropyrrolo[1,2-c]pyrimidin-6-yl}ethanesulfonamide], the “OX2R agonist activity (3 uM, %)” value is reported as 97%.
`CCS(=O)(=O)N[C@@H]1CN2C(=O)N(c3noc4cccc(-c5ccccc5C)c34)CC[C@@H]2C1(F)F` [Example 325, N-{(4aR,6R)-5,5-difluoro-2-[4-(2-methylphenyl)-1,2-benzoxazol-3-yl]-1-oxooctahydropyrrolo[1,2-c]pyrimidin-6-yl}ethanesulfonamide] was tested, and the “OX2R agonist activity (3 uM, %)” value was 101%.
